SMILES strings stand for the structures. A value given as a limit tells only on which side of the number the result lay.

Data set [1] deals with T1, α-mannosidase (jack bean origin) (Canavalia ensiformis, UniProt C0HJB3).
T1 construct: purchased Sigma Aldrich; host or cells: jack bean
T1 sequence (C0HJB3 1-981): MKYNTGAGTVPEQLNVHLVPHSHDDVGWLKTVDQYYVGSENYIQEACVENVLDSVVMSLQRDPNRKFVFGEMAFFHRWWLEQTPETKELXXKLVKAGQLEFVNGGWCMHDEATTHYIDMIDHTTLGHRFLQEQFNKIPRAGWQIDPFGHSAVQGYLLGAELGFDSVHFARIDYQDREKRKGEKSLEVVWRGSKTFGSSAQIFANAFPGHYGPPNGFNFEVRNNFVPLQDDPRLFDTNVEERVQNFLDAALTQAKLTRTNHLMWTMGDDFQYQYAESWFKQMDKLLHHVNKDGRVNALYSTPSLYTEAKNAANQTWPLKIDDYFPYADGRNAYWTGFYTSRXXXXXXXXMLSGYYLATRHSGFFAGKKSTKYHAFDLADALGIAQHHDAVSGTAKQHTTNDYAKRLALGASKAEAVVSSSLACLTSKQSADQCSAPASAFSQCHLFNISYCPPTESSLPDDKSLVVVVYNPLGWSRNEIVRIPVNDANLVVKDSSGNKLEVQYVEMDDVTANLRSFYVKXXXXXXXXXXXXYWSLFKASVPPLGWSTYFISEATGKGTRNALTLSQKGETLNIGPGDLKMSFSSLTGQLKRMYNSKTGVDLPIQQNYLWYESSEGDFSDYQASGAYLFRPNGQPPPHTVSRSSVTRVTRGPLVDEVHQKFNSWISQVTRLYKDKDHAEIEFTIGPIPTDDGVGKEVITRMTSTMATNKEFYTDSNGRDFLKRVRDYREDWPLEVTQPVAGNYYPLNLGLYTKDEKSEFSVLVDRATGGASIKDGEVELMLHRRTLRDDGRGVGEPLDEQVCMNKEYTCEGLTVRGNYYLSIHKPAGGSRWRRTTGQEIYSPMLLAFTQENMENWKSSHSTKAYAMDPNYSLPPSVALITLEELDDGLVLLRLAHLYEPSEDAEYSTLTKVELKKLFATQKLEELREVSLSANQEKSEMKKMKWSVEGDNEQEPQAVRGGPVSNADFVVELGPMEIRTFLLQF
The data set is described as follows: α-mannosidase inhibition assay, 96-well. In kind it is biochemical. Particulars: two independent assays, performed in duplicate; read-out: IC50s α-mannosidase (jack bean). On the procedure:
(§1) To assess the inhibitory effect and also the extent of selectivity our library was against α-glucosidase (yeast origin), α-fucosidase (bovine kidney origin) and α-mannosidase (jack bean origin) (in 96-well plates employing 4-nitrophenyl-α-D-glucopyranoside (PNPG) as substrate) (Table 1). The test compounds were dissolved and diluted in dimethyl sulfoxide (DMSO). They were placed in the plate along with the substrate and 10 mM of potassium […] buffer. They were then reacted with appropriate enzymes. After incubating the plates for ten minutes, the absorbance of the wells were measured at […]. The increase in […] (ΔA) was compared against the control i.e. buffer.
(§2) The inhibitory effect of the synthesized compounds on α-glucosidase (yeast origin), α-fucosidase (bovine kidney origin) and α-mannosidase (jack bean origin) inhibitory activity was determined in 96-well plates employing the substrate PNPG and 4-nitrophenyl α-D-glucopyranoside according to the procedure previously reported by Ferreres et al.[42]. […] The absorbance was measured spectrophotometrically at 430 nm (Spectra Max M5e micro plate reader). The increase in absorbance (ΔA) was compared with that of the control (buffer instead of test compound) to compute the inhibitory concentrations (IC50) which was determined from two independent assays, performed in duplicate. […]

For data set [2], the target named is T2, α-fucosidase (bovine kidney origin) (Bos taurus, UniProt Q2KIM0).
T2 construct: purchased Sigma Aldrich; host or cells: bovine kidney
T2 sequence (Q2KIM0 23-468): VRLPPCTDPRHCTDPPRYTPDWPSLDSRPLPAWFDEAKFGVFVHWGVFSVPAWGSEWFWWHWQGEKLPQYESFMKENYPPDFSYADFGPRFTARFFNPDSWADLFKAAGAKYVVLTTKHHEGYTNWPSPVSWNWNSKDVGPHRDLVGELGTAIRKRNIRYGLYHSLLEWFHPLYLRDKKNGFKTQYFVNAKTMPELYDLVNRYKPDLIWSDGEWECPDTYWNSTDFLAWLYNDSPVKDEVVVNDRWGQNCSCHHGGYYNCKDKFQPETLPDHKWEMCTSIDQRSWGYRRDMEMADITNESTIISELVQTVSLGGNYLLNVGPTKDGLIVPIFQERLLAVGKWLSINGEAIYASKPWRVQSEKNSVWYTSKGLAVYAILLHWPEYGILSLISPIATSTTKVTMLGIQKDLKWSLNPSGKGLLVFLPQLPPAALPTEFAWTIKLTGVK
Briefly: α-fucosidase inhibition assay, 96-well. Particulars: two independent assays, performed in duplicate; read-out: IC50s α-fucosidase (bovine kidney). Type of data set: biochemical. The procedure: as §1, §2

Data set [3] has as its target T3, α-glucosidase (yeast origin) (Saccharomyces cerevisiae, UniProt P53341).
T3 construct: purchased Sigma Aldrich
Briefly: α-glucosidase (yeast) inhibition assay, PNPG substrate, 96-well. In kind it is biochemical. Particulars: two independent assays, performed in duplicate, 37 °C, 10 min, read-out: IC50s α-glucosidase (yeast).
Procedure: The test compounds were dissolved and diluted in dimethyl sulfoxide (DMSO). They were placed in the plate along with the substrate and 10 mM of potassium sulphate buffer. They were then reacted with appropriate enzymes. After incubating the plates for ten minutes, the absorbance of the wells were measured at 430 nM. The increase in abundance (ΔA) was compared against the control i.e. buffer.
The inhibitory effect of the synthesized compounds on α-glucosidase (yeast origin), α-fucosidase (bovine kidney origin) and α-mannosidase (jack bean origin) inhibitory activity was determined in 96-well plates employing the substrate PNPG and 4-nitrophenyl α-D-glucopyranoside according to the procedure previously reported by Ferreres et al.[42]. Prior to use, all test compounds were solubilised in solvent, dimethylsulfoxide (DMSO), and then further diluted in DMSO to acquire the desired final maximum test concentration. […] The absorbance was measured spectrophotometrically at 430 nm (Spectra Max M5e micro plate reader). The increase in absorbance (ΔA) was compared with that of the control (buffer instead of test compound) to compute the inhibitory concentrations (IC50) which was determined from two independent assays, performed in duplicate.

Details of data set [4]: method as in doi:10.1016/S0065-7743(08)60834-9. Particulars: cited from earlier work.
The next data set has as its system NA-STZ-diabetic mice. Details: method as in PMID 20879744. The note with it: 10, 31.2 and 56.2 mg/Kg; cited from earlier work.

T3 sequence (P53341 whole entry): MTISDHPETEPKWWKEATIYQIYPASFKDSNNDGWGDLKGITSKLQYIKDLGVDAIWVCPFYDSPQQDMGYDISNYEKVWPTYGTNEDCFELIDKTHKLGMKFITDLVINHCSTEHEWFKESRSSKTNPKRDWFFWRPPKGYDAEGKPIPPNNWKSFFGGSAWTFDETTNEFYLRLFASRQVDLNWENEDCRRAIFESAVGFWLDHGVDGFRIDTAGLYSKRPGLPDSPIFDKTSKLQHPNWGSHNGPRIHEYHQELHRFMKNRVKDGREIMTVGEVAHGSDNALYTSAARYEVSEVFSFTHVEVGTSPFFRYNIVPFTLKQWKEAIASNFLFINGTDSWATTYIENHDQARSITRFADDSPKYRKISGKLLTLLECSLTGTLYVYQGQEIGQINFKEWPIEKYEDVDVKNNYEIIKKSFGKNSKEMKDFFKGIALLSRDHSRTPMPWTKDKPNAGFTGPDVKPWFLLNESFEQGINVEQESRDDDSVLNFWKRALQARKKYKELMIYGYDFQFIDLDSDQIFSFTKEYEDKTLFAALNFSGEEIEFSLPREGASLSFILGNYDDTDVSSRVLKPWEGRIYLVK

For `O=C(Cc1ccccc1Br)c1ccccc1C(=O)NCCc1ccccc1` [3o], the IC50 in data set [1] is > 50 µM; in data set [2], > 50 µM; in data set [3] it was 6.93 µM.
As for `CS(=O)(=O)c1ccc(-n2nc(C(F)(F)F)cc2-c2ccc(F)cc2)cc1` [SC-58125], in data set [4], the half-life is given as ~ 200 h.
For `CCCC=C1OC(=O)c2ccccc21` [compound 2], the blood glucose level entry in the data set on NA-STZ-diabetic mice is given as “lowered blood glucose level”.

Values taken from paper PMC5643545, “A novel library of -arylketones as potential inhibitors of α-glucosidase: Their design, synthesis, in vitro and in vivo studies” (Scientific Reports, 2017).
